Data as given in patent US9624214B2, “Amino-substituted imidazo[1,2-a]pyridinecarboxamides and their use” (BAYER PHARMA AKTIENGESELLSCHAFT, priority 2012, dated 2017).
Structures can show the parent of a compound that is named as a salt.

Target: T1, recombinant guanylate cyclase reporter cell line (Rattus norvegicus, UniProt P19686+P20595)
T1 construct: expressed in transfected cells
T1 sequence (P20595 1-619): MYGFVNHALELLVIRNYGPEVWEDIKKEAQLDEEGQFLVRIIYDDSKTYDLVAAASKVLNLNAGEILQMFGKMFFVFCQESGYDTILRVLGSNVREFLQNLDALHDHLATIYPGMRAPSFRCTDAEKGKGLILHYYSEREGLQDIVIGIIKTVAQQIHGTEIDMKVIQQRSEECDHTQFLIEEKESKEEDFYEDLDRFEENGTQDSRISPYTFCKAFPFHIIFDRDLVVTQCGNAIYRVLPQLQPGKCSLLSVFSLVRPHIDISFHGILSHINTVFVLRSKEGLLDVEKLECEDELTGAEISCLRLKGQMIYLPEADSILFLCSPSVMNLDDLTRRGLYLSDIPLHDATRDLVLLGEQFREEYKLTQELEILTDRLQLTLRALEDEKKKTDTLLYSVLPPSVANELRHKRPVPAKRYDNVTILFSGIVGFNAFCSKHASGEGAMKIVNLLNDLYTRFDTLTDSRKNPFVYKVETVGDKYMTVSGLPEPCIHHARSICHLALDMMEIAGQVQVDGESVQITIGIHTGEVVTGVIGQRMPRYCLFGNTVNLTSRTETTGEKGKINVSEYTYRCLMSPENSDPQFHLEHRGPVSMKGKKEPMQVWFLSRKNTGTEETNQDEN
T1 sequence (P19686 1-690): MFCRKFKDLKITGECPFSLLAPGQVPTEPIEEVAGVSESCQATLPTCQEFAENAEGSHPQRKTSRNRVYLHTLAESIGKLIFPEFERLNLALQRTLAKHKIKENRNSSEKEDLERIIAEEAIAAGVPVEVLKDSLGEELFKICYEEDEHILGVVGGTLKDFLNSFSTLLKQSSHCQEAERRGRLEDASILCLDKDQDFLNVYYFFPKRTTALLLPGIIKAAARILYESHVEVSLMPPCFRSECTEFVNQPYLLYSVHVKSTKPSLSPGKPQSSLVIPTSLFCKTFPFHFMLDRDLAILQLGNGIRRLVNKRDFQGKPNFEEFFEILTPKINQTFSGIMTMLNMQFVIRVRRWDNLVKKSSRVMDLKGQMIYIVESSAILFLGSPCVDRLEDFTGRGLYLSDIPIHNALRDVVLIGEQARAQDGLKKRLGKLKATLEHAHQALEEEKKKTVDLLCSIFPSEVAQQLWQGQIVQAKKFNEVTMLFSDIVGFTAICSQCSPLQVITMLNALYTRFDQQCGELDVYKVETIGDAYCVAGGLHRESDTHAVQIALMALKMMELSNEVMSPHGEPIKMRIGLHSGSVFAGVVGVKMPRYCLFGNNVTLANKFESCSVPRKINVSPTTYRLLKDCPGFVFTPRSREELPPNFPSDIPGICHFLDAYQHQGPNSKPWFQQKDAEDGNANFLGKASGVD
Experiment: B-2. Action on recombinant guanylate cyclase reporter cell line
Type: cell-based
Conditions: MEC = minimal effective concentration; in some cases mean values from individual determinations
Outline: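 Cellular activity was measured in a reporter cell line expressing recombinant guanylate cyclase. Values are given as MEC, the minimal effective concentration, and some are means of individual determinations.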

MEC [µM]	SMILES
1.00	CCCC[C@H](CN1CCCC1)NC(=O)c1c(C)nc2c(OCc3c(F)cccc3F)cccn12 [Example 66, ent-8-[(2,6-difluorobenzyl)oxy]-2-methyl-N-[(2R)-1-(pyrrolidin-1-yl)hexan-2-yl]imidazo[1,2-a]-pyridine-3-carboxamide]
0.30	CCCC[C@H](CN1CCN(C)CC1)NC(=O)c1c(C)nc2c(OCc3c(F)cccc3F)cccn12 [Example 67, ent-8-[(2,6-difluorobenzyl)oxy]-2-methyl-N-[(2R)-1-(4-methylpiperazin-1-yl)hexan-2-yl]imidazo[1,2-a]pyridine-3-carboxamide]
0.30	CCCC[C@H](CN(C)C)NC(=O)c1c(C)nc2c(OCc3c(F)cccc3F)cccn12 [Example 68, ent-8-[(2,6-difluorobenzyl)oxy]-N-[(2R)-1-(dimethylamino)hexan-2-yl]-2-methylimidazo[1,2-a]pyridine-3-carboxamide]
1.00	CCCC[C@H](CN(CC)CC)NC(=O)c1c(C)nc2c(OCc3c(F)cccc3F)cccn12 [Example 69, ent-N-[(2R)-1-(diethylamino)hexan-2-yl]-8-[(2,6-difluorobenzyl)oxy]-2-methylimidazo[1,2-a]-pyridine-3-carboxamide]
1.00	CCCC[C@H](CNCCOC)NC(=O)c1c(C)nc2c(OCc3c(F)cccc3F)cccn12 [Example 70, ent-8-[(2,6-difluorobenzyl)oxy]-N-{(2R)-1-[(2-methoxyethyl)amino]hexan-2-yl}-2-methylimidazo[1,2-a]pyridine-3-carboxamide]

Continued, molecule first:

SMILES	MEC [µM]
Cc1cc(OCc2c(F)cccc2F)c2nc(C)c(C(=O)NC(CN)c3ccc(F)c(F)c3)n2c1 (stereo not drawn) [Example 51, ent-N-[2-Amino-1-(3,4-difluorophenyl)ethyl]-8-[(2,6-difluorobenzyl)oxy]-2,6-dimethylimidazo-[1,2-a]pyridine-3-carboxamide]	0.20
Cc1nc2c(OCc3c(F)cccc3F)cc(F)cn2c1C(=O)NC(CN)c1ccc(F)c(F)c1 (stereo not drawn) [Example 53, ent-N-[2-Amino-(3,4-difluorophenyl)ethyl]-8-[(2,6-difluorobenzyl)oxy]-6-fluoro-2-methylimidazo[1,2-a]pyridine-3-carboxamide]	0.30
NCC(NC(=O)c1c(C2CC2)nc2c(OCc3c(F)cccc3F)cccn12)c1ccc(F)c(F)c1 (stereo not drawn) [Example 54, ent-N-[2-amino-1-(3,4-difluorophenyl)ethyl]-2-cyclopropyl-8-[(2,6-difluorobenzyl)oxy]-imidazo[1,2-a]pyridine-3-carboxamide]	1.00
NCC(NC(=O)c1cnc2c(OCc3c(F)cccc3F)cccn12)c1ccc(F)c(F)c1 (stereo not drawn) [Example 55, ent-N-[2-amino-1-(3,4-difluorophenyl)ethyl]-8-[(2,6-difluorobenzyl)oxy]imidazo[1,2-a]pyridine-3-carboxamide dihydrochloride]	2.00
Cc1nc2c(OCc3c(F)cccc3F)cccn2c1C(=O)N[C@H]1CCCNC1 [Example 60, 8-[(2,6-difluorobenzyl)oxy]-2-methyl-N-[(3S)-piperidin-3-yl]imidazo[1,2-a]pyridine-3-carboxamide dihydrochloride]	0.30
Cc1nc2c(OCc3c(F)cccc3F)cccn2c1C(=O)N[C@H]1CCNC1 [Example 61, 8-[(2,6-Difluorobenzyl)oxy]-2-methyl-N-[(3S)-pyrrolidin-3-yl]imidazo[1,2-a]pyridine-3-carboxamide]	3.00
CCCC[C@H](CN1CCOCC1)NC(=O)c1c(C)nc2c(OCc3c(F)cccc3F)cccn12 [Example 64, ent-8-[(2,6-Difluorobenzyl)oxy]-2-methyl-N-[(2R)-1-(morpholin-4-yl)hexan-2-yl]imidazo[1,2-a]-pyridine-3-carboxamide]	0.30
CCN1C2CCCC1CC(NC(=O)c1c(C)nc3c(OCc4c(F)cccc4F)cccn13)C2 (stereo not shown) [Example 71, 8-[(2,6-Difluorobenzyl)oxy]-N-(9-ethyl-9-azabicyclo[3.3.1]non-3-yl)-2-methylimidazo[1,2-a]-pyridine-3-carboxamide]	0.30
